Data published in patent US11680054B2, “Bronchodilating hetero-linked amides” (Arcede Pharma AB, priority 2018, dated 2023).
≈ marks a conversion by molar mass, not a printed value.

Legend:
[1] = Solubility in phosphate buffer (pH 7.4); assay type: physicochemical; settings: aqueous buffer, thermodynamic from solid; phosphate buffer pH 7.4, agitated 20 hours at 37° C.
Procedure: The solubilities of 1-(5,8-Dichloro-6,7-dihydroxy-3,4-dihydroisoquinolin-2(1H)-yl)-2-(6-(trifluoromethyl)pyridin-3-ylthio)ethenone (example 1) and the known compound 1-(5,8-Dichloro-6,7-dihydroxy-3,4-dihydroisoquinolin-2(1H)-yl)-2-(6-(trifluoromethyl)pyridine-3-yloxy)ethanone in phosphate buffer (pH 7.4) were determined.
Briefly, 1 mg of the study compounds were weighted into glass vials (two replicates). 2 ml of pH 7.4 phosphate buffer was added into the vials and vials were then agitated (1300 rpm) 20 hours at 37° C. Samples were filtrated using 0.45 μm PVDA syringe filters before analysis. 10 μg/ml and 500 μg/ml standard solutions in acetonitrile:ultra-pure water were prepared using 10 mM DMSO-stock solution. Samples and standards were analyzed from glass vials. The samples were analyzed using UPLC/PDA immediately after preparation. A Waters Acquity ultra high-performance liquid chromatographic (UPLC) system with autosampler, vacuum degasser, photo-diode-array detector (Acquity PDA) and column oven was used.

male Sprague Dawley rats = assay: Carbamylcholine-induced bronchospasm in anaesthetised rats (Konzett-Rossler method); assay type: in vivo; settings: rat; for Bronchodilatating effect on carbamylcholine chloride induced bronchoconstriction: intra-tracheal, administered at 6 mM, smaller increase in pulmonary resistance compared to vehicle; for Total pulmonary resistance increase from baseline post carbamylcholine chloride challenge, Average: single intra-tracheal nebulization of 100 μl at 6 mM, 30 min before carbamylcholine chloride 275 μg/kg iv
Procedure: The bronchocondilatator effect of example 1 and (2E)-1-(5,8-dichloro-3,4-dihydro-6,7-dihydroxy-2(1H)-isoquinolinyl)-3-[6-(trifluoromethyl)-3-pyridinyl]-2-propen-1-one was evaluated using the Konzett-Rossler method (cf. Konzett H, Rössler R (1940) Versuchsanordung zu Untersuchungen an der Bronchialmuskulatur. Naunyn-Schmiedeberg's Arch Exp Path Pharmakol 192:71-74) in the anaesthetised rat following single intra-tracheal administration.
The study involved male Sprague Dawley rats, weighing between 291.1 g and 347.7 g on the day of the test.
Animals were put on to a water-only fast the day prior to the test. On the day of the test, animals were anaesthetised using sodium pentobarbital at a dose of 60 mg/kg by intraperitoneal route in a volume of 1 mL/kg, then at 2 mg/mL by the intravenous route at a rate of 10 mL/kg/hour throughout the test. The trachea was quickly cannulated to enable artificial respiration. The animals were ventilated with an air flow of approximately 1 mL per 100 g at a rate of 54 cycles/minute. Total pulmonary resistance was measured continuously using a pressure transducer, fitted to a side branch of the tracheal cannula. Arterial blood pressure and heart rate were obtained by placing the telemetric pressure sensor of telemetric transmitter HD-S11 in the carotid artery. A jugular vein was cannulated for the intravenous administration of carbamylcholine chloride. The temperature of the animal was kept between 36.0° C. and 39.3° C. using an electric blanket. At the end of the surgical phase, animals were pre-medicated with a solution of pancuronium bromide at 0.2 mg/mL by the intravenous route at a rate of 10 mL/kg/hour throughout the test to avoid spontaneous respiration. Ventilatory flow was adjusted in such way as to obtain a baseline stabilisation of the pulmonary pressure resistance between 6.5 to 10.5 mmHg (i.e. approximately between 10 to 15% of maximum pulmonary resistance). About 15 minutes after the end of the surgical phase and stabilisation of the pulmonary pressure signal, the animals were dosed with: • 1. Example 1; • 2. (2E)-1-(5,8-dichloro-3,4-dihydro-6,7-dihydroxy-2(1H)-isoquinolinyl)-3-[6-(trifluoromethyl)-3-pyridinyl]-2-propen-1-one; or • 3. Their vehicle
by intra-tracheal nebulization in a volume of 100 μl using a Microsprayer aerosolizer (Penncentury).
Thirty minutes later, carbamylcholine chloride at 275 μg/kg was administered using an infusion pump in a volume of 3.33 mL/kg over a 5-minute period. Total pulmonary resistance, mean, systolic and diastolic arterial blood pressure and heart rate were continuously recorded over the test.
Example 1 was formulated by dissolving 5.5 mg in 2015 μl vehicle (200 mM (2-hydroxypropyl)-β-cyclodextrin, 49 mM L-lysine, 6.2 mM L-ascorbic acid in MilliQ water). […]

[2] = tested on: human peripheral blood mononuclear cell (PBMC); assay: Human PBMC in vitro model, LPS induced MCP-1 and LTB-4 levels; assay type: cell-based; settings: for LTB-4 reduction (%) / MCP-1 reduction (%): LPS 0.1 μg/ml, 24 h
Procedure: Cryopreserved PBMC's (SeraCare, #72001) are thawed, washed with culture media (RPMI-1640 from Invitrogen, #61870-036+10% heat inactivated fetal bovine serum from Invitrogen, #10082-147+100 U/ml penicillin+100 μg/ml streptomycin) and tested for viability using Trypan blue (PBMC viability=96%). Cells are then resuspended to 1×10^6 cells/ml in culture media and 0.5 ml plated into 24 well culture plates (5×10^5 cells/well) before incubation for 30 minutes at 37° C. with 5% C02 prior to addition of a compound to be assessed (10 μM) or dexamethasone (1 μM). One hour thereafter, LPS (0.1 μg/ml, Salmonella abortus equi, Sigma, #L1887) are added and the cells are incubated for another 24 h before collection of the cell culture supernatants, which are assayed for the presence of MCP-1 and LTB4.
MCP-1 levels are quantified employing a Luminex-based assay according the manufacturer's instructions. Data are collected using a Luminex 100 (Luminex Corporation, Austin, Tex.). Standard curves are generated using a 5-parameter logistic curve fitting equation weighted by 1/y (StarStation V 2.0; Applied Cytometry Systems, Sacramento, Calif.). Each sample reading are interpolated from the appropriate standard curve. Calculated concentrations are multiplied by the appropriate dilution factor when necessary.
LTB4 levels are quantified by ELISA following the manufacturer's instructions. Absorbance readings are detected using a ThermoMax microplate reader (Molecular Devices). Standard curves are generated using a 4-parameter logistic curve fitting equation (SoftMax Pro 4.7.1; Molecular Devices). Each sample reading are interpolated from the appropriate standard curve. Duplicate interpolated sample values are averaged and standard deviations are calculated. Calculated concentrations are multiplied by the appropriate dilution factor.
The reults in lowering MCP-1 and LTB-4 levels compared to vehicle (negative control) and 1 μM dexamethasone (positive control) are given below.

human bronchiols = assay: Leukotriene D4 induced contraction of human bronchus preparations, in vitro model; settings: pre-treatment with compound at 10 μM; Leukotriene D4 (10 nM) induced contraction of human bronchiols
Procedure: (§1) The usefulness of the compounds, as defined in the preceding embodiments, in treating, pretreating, revoking, mitigating, alleviating and/or preventing a condition of the respiratory apparatus characterized by bronchoconstriction, were evaluated in a complex and relevant in vitro model. The in vitro model was in accordance with the in vitro model disclosed in US 2006-0040254 A1 and Skogvall, S., Berglund, M., Dalence-Guzmán, M. F., Svensson, K., Jönsson, P., Persson, C. G. A and Sterner, O., Pulmonary Pharmacology and Therapeutics, vol 20:3, 2007, p. 273-280. All references disclosed herein are hereby incorporated in their entirety by reference.
In short, lung tissue was obtained from patients undergoing lobectomia or pulmectomia due to lung carcinoma. From the bronchus of this tissue were rectangular oblong preparations obtained. The contraction induced by inflammatory mediators, such as Leukotriene D4, histamine, prostaglandin D2 or acetylcholine, in the presence and absence of the compound to be evaluated, were compared.
as §1, with “embodiments herein,” for “preceding embodiments,”, “treating,” for “treating, pretreating,”, “model, which is described” for “model. The in vitro model was in accordance with the in vitro model disclosed”
The remaining contraction, after pre-treatment with various compound examples at a concentration of 10 μM, of human bronchiols after Leukotriene D4 (10 nM) induced contraction according to the in vitro method described herein above are tabulated below.

[3] = dexamethasone 1 μM (positive control)
[4] = compound 10 μM, compared to vehicle

SMILES: O=C(COc1ccc(C(F)(F)F)nc1)N1CCc2c(Cl)c(O)c(O)c(Cl)c2C1 [1-(5,8-Dichloro-6,7-dihydroxy-3,4-dihydroisoquinolin-2(1H)-yl)-2-(6-(trifluoromethyl)pyridine-3-yloxy)ethanone, reference compound]
- solubility at 20 h [1]: 76.7 µg/mL (≈ 175 µM)

SMILES: O=C(/C=C/c1ccc(C(F)(F)F)nc1)N1CCc2c(Cl)c(O)c(O)c(Cl)c2C1 [(2E)-1-(5,8-dichloro-3,4-dihydro-6,7-dihydroxy-2(1H)-isoquinolinyl)-3-[6-(trifluoromethyl)-3-pyridinyl]-2-propen-1-one, reference compound]
- Bronchodilatating effect on carbamylcholine chloride induced bronchoconstriction (male Sprague Dawley rats): had a bronchodilatating effect
- Total pulmonary resistance increase from baseline post carbamylcholine chloride challenge, Average (male Sprague Dawley rats): 2.86 mmHg

SMILES: C[C@@H]1C[C@H]2[C@@H]3CCC4=CC(=O)C=C[C@]4(C)[C@@]3(F)[C@@H](O)C[C@]2(C)[C@@]1(O)C(=O)CO [Dexamethasone, dexamethasone, reference compound]
- LTB-4 reduction (%) [2, 3]: 23.4%
- MCP-1 reduction (%) [2, 3]: 15.5%

SMILES: O=C(CSc1ccc(C(F)(F)F)nc1)N1CCc2c(Cl)c(O)c(O)c(Cl)c2C1 [Example 1, 1-(5,8-Dichloro-6,7-dihydroxy-3,4-dihydroisoquinolin-2(1H)-yl)-2-(6-(trifluoromethyl)pyridin-3-ylthio)ethanone]
- solubility at 20 h [1]: 16.6 µg/mL (≈ 36.6 µM)
- Remaining contraction (%) (human bronchiols): 7%
- Reduction of inflammatory markers (MCP-1 and LTB-4) ([2]; 10 μM, LPS stimulated PBMC): significant reduction
- LTB-4 reduction (%) [2, 4]: 20.7%
- MCP-1 reduction (%) [2, 4]: 70.8%
- Bronchodilatating effect on carbamylcholine chloride induced bronchoconstriction (male Sprague Dawley rats): had a bronchodilatating effect
- Total pulmonary resistance increase from baseline post carbamylcholine chloride challenge, Average (male Sprague Dawley rats): 2.33 mmHg

SMILES: Cc1nc(C(F)(F)F)ccc1SCC(=O)N1CCc2c(Cl)c(O)c(O)c(Cl)c2C1 [Example 2, 1-(5,8-Dichloro-6,7-dihydroxy-3,4-dihydroisoquinolin-2(1H)-yl)-2-(2-methyl-6-(trifluoromethyl)pyridin-3-ylthio)ethanone]
- Remaining contraction (%) (human bronchiols): 14%

SMILES: Cc1cc(C(F)(F)F)cc(SCC(=O)N2CCc3c(Cl)c(O)c(O)c(Cl)c3C2)n1 [Example 3, 1-(5,8-Dichloro-6,7-dihydroxy-3,4-dihydroisoquinolin-2(1H)-yl)-2-(6-methyl-4-(trifluoromethyl)pyridin-2-ylthio)ethanone]
- Remaining contraction (%) (human bronchiols): 16%

SMILES: O=C(C1CCCN(c2ccc(F)cn2)C1)N1CCc2c(Cl)c(O)c(O)c(Cl)c2C1 (stereo not drawn) [Example 4, (5,8-Dichloro-6,7-dihydroxy-3,4-dihydroisoquinolin-2(1H)-yl)(1-(5-fluoropyridin-2-yl)piperidin-3-yl)methanone]
- Remaining contraction (%) (human bronchiols): 51%
